Data taken from patent US20240226225A1 (Protagonist Therapeutics, Inc., priority 2021, published 2024).

Columns and labels:
[1] = test system: ferroportin fused to green fluorescent protein; conditions: read-out: EC50 (50% of the maximal loss of fluorescence); cells incubated for 24 hours with graded concentrations; cited from earlier work
[2] = biological target: human ferroportin (SLC40A1) fused in frame with GFP, stably expressed in HEK293 cells (human) (UniProt Q9NP59); assay: cell-based or functional assay

## Hy-DTHFPIC(1)IFC(2)C(3)GC(2)C(4)HRSKC(3)GMC(4)C(1)KT-OH [Hepcidin]
[1]
  EC50: 5 to 15 nM

## RI-Mini Hepcidin, Hy-DPhe-DIle-DCys-DIle-DPro-DPhe-DHis-DThr-DAsp-NH2 (peptide)
[2]
  Potency EC50 (nM), FPN activity assay (ferroportin-GFP internalization/degradation, HEK293 cells): > 10000 nM
